Test results published in publication PMC8692498, “Synthesis and multifaceted pharmacological activity of novel quinazoline NHE-1 inhibitors” (Scientific Reports, 2021).

Experiments:
[1] = test system: primary peritoneal macrophages of C57BL/6J mice; assay: Nitric oxide synthesis (nitrite, Griess reagent) in LPS-stimulated peritoneal macrophages; format: cell-based; conditions: 100 μM
Experimental: (§1) Peritoneal macrophages (PM) were isolated from the peritoneal exudate of 30 male C57bl/6j mice. To accumulate PM, 1 ml of 3% peptone solution was injected intraperitoneally. After 3 days the mice were euthanized by cervical dislocation. Cells of peritoneal exudate were obtained by aseptically washing the abdominal cavity with 5 ml of sterile Hanks’s solution (+ 4-6 °C) without calcium and magnesium ions. The total number and viability of cells were assessed in a Goryaev counting chamber (Russia) with a 0.4% trypan blue staining (Sigma-Aldrich, USA). The cell concentration was adjusted to 1.0×10^6 cells/ml in DMEM (Gibco) supplemented with 2 mM L-glutamine (Gibco), 10% heat-inactivated fetal bovine serum (BioClot, Germany), 100 U/ml penicillin and […] streptomycin (Gibco) and plated 200 μl/well in 96-well transparent plates (SPL Life Sciences Co., Ltd., Korea). It was left for 2 h at 37°C in a humidified atmosphere with 5% CO2, after which the wells were washed to remove non-adherent cells. After 24 hours of incubation, 20 μl of the supernatant was removed and 20 μl of solutions of test compounds were added 30 min before E. coli O127:B8 LPS (100 ng/ml final concentration). Experiments were run in 3 independent replicates.
The accumulation of nitrite anion (a stable end product of NO decomposition produced by iNOS) in supernatants was determined using a standard Griess reagent. Briefly, 50 μl of supernatants collected 22 hours after incubation of PM with test and control compounds were mixed with 50 μl of 1% sulfonamide in 2.5% H3PO4 and 50 μl of 0.1% N-(1-naphthyl) ethylenediamine in 2,5% H3PO4. After incubation at 23 °C for 10 min in an orbital shaker, the optical density was determined at a wavelength of 550 nm with a microplate reader Infinite M200 PRO (Tecan, Austria).

[2] = test system: IL-6 secretion; assay: Interleukin-6 secretion (ELISA) from LPS-stimulated peritoneal macrophages; format: cell-based, mice; conditions: male, C57BL/6J, mouse, primary peritoneal macrophages stimulated with LPS; CC50 versus IC50 of IL-6 secretion; read-out: selectivity of IL-6 inhibition over cytotoxicity
Experimental: as §1
(§2) Cell supernatant was collected and centrifuged at 1000 g for 20 min in a 2-16PK Sigma centrifuge (Germany). The concentration of IL-6 was determined by ELISA using a commercial kit (Cloud-clone ELISA kit) with a microplate reader Infinite M200 PRO (Tecan, Austria).

[3] = test system: primary peritoneal macrophages of C57BL/6J mice; assay: as above; format: cell-based
Experimental: as §1, §2

[4] = molecular target: T1, NHE-1 (Oryctolagus cuniculus, UniProt P23791); assay: NHE-1 inhibition assay on rabbit platelets (platelet shape change after acidification with sodium propionate, laser aggregometer); format: cell-based
T1 construct: endogenous in cells; host or cells: rabbit platelets in platelet-rich plasma (male rabbits)
T1 sequence (P23791 whole entry): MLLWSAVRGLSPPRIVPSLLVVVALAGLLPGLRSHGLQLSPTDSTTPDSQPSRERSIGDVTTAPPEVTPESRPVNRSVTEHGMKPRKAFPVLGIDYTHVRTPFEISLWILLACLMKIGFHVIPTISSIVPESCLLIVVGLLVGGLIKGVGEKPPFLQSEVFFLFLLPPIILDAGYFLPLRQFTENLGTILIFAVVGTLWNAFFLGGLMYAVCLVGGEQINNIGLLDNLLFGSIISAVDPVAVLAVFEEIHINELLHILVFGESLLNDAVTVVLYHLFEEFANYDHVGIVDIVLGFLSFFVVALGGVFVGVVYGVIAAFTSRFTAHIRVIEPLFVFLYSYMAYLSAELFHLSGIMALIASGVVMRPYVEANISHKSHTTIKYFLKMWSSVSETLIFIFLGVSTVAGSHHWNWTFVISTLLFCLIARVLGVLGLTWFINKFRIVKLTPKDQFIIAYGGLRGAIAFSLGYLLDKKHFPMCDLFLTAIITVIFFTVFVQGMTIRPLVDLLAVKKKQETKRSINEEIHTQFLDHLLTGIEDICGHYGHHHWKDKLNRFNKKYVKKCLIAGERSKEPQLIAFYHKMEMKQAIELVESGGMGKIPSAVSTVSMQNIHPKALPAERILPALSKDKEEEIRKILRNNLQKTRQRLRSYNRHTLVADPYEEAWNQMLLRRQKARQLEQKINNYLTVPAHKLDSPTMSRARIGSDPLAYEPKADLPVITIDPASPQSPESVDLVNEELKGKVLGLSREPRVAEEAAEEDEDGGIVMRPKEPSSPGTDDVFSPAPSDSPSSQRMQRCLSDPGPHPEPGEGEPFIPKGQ

Cn1c(=O)n(Cc2nnc(N)[nH]2)c(=O)c2ccccc21 [Compound 3e, 3-[(5-Amino-4H-1,2,4-triazol-3-yl)methyl]-1-methylquinazoline-2,4(1H,3H)-dione]
inhibition of the synthesis of nitric oxide [1]: statistically significantly inhibit | selectivity ratio [2]: 4 to 6 | secretion of interleukin 6 ([3]; LPS-stimulated macrophages, screening (Fig. 4)): suppressed | IC50 ([3]; Mus musculus, Peritoneal macrophage, LPS-stimulated murine macrophages, read-out: IC50 of IL-6 synthesis/secretion): 32.1 µM | IC50 [4]: 0.0058 µM
